The text below walks through data of publication PMC3349995 (Journal of Natural Products, 2012).

Broadly, the MIC is the lowest concentration found to suppress growth.

In brackets after ≈: the same amount, converted by molar mass.

Assay [1] has as its system methicillin-sensitive Staphylococcus aureus (MSSA, ATCC #29213). As to the kind of experiment: Antibacterial assay, MIC by dilution antimicrobial susceptibility test. The class given is cell-based. Particulars: ATCC29213|MSSA, 18 h, read-out: MIC against MSSA.
For assay [2], the system named is methicillin-resistant Staphylococcus aureus (MRSA, ATCC #33591). The assay is described as above. The settings on record: ATCC33591|MRSA, 18 h, read-out: MIC against MRSA. The class given is cell-based.
For assay [3] the following is noted: qualitative statement from the literature; cited from earlier work.

For `CN[C@H](CC(C)C)C(=O)N[C@H]1C(=O)N[C@@H](CC(N)=O)C(=O)N[C@H]2C(=O)N[C@H]3C(=O)N[C@H](C(=O)N[C@H](C(=O)O)c4cc(O)cc(O)c4-c4cc3ccc4O)[C@H](O)c3ccc(c(Cl)c3)Oc3cc2cc(c3O[C@@H]2O[C@H](CO)[C@@H](O)[C@H](O)[C@H]2O[C@H]2C[C@](C)(N)[C@H](O)[C@H](C)O2)Oc2ccc(cc2Cl)[C@H]1O` [Vancomycin], the MIC in assay [1] and in assay [2] was 1 µg/mL (≈ 0.69 µM) each time.

In the case of peptidolipin NA, the “antibacterial activity (reported)” value in assay [3] was “moderate antibacterial activity”.
